Where “and” joins values, the source holds several entries; their conditions need not be identical. Equal entries are not always repeated. Entries after “also recorded” stand apart in the source; their conditions may differ.
Key:
Sheep MCC = experiment: Mucociliary clearance (MCC) studies in sheep; assay type: in vivo; conditions: for AUC (% CI × h) / Initial Slope (4.0-4.5 h): MCC at 4 h post-dose
Method: The animal model that has been used most often to measure changes in MCC is the sheep model. The effect of compounds for enhancing mucociliary clearance (MCC) can be measured using an in vivo model described by Sabater et al., Journal of Applied Physiology, 1999, pp. 2191-2196, incorporated herein by reference.
(§1) In these studies, adult sheep were restrained and nasally intubated with an endotracheal tube. Aerosolized test articles were administered over 10-15 minutes to sheep. Radiolabeled ^99mTc-sulfur colloid (TSC, 3.1 mg/mL; containing approximately 20 mCi) was then administered at a specified time four or eight hours after test article. The radiolabeled aerosol was administered through the endotracheal tube for about 5 minutes. The sheep were then extubated, and total radioactive counts in the lung were measured every 5 minutes for a 1-hour observation period. The rate of radiolabel clearance from the lung is representative of the MCC rate in the animal. The advantage of this system is that it closely simulates the human lung environment. The model also allows for the collection of simultaneous PK/PD information through plasma and urine sampling over the test period. There are also several techniques to measure the drug concentrations on the airway surface during the MCC measurements. These include the collection of exhaled breath condensates or a filter paper method to obtain ASL via bronchoscopy.
The ovine model described above was used to evaluate the in vivo effects (efficacy/durability) of aerosol-delivered test agent on MCC. Treatments consisting of either 4 mL of test agent or test agent in combination with HS were tested. To determine if combining HS with test agent enhanced MCC, HS was administered immediately following test agent administration. Test solutions were aerosolized using a Raindrop nebulizer at a flowrate of eight liters per minute and connected to a dosimetry system consisting of a solenoid valve and a source of compressed air (20 psi). The deposited dose of drug in sheep lungs after an aerosol administration using the Raindrop nebulizer is estimated to be 8-15% of the dose. Using a Raindrop nebulizer, radiolabeled TSC was administered over approximately 3 minutes either 4 or 8 hours after drug treatment to evaluate efficacy/durability. Radioactive counts were measured in a central region in the right lung at 5 min intervals for one hour with a gamma camera. Three methods of analysis were utilized, 1) initial rate of clearance (slope) over the first 30 min fitted using linear regression 2) area under the curve for % clearance over time over one hour, and 3) the maximum clearance obtained in one hour.

[1] = test system: human bronchial epithelial (HBE) cells; experiment: Airway surface liquid drug clearance and metabolism by human airway epithelium; assay type: in vitro ADME
Method: The disappearance of 33 from the apical surface and airway epithelial metabolism were assessed in human bronchial epithelial (HBE) cells (Table 3). In these experiments 25 μL of a 25 μM solution of ENaC blocker was added to the apical surface of HBE cells grown at an air/liquid interface, and the drug and metabolite concentration in the apical and basolateral compartment was measured over 2 h by UPLC.
Therefore, the compounds of formula (I) have a longer half-life on mucosal surfaces compared to these know compounds as evidenced by the data shown in Table G. The disappearance of Compound 33 from the apical surface and airway epithelial metabolism were assessed in HBE and compared to Comparative Example 1 (Table H). In these experiments 25 μL of a 25 μM solution of ENaC blocker was added to the apical surface of HBE cells grown at an air/liquid interface, and the drug concentration in the apical and basolateral compartment was measured over 2 h by UPLC.

[2] = Plasma potassium levels in sheep of the MCC study; assay type: in vivo
Method: as §1
The compound of Comparative Example 1 can be seen on page 15 of US 2005/0080093 and as Compound 2 on page 90 of WO 2008/031048, and as Compound 2 on pages 42-43 of WO 2008/031028. […] In order to evaluate this potential, it is beneficial to have MCC activity in vivo and not cause elevation of plasma potassium at the useful dose. One model to assess this is the sheep MCC model described below.

[3] = sheep, solution concentration given beside the dose
[4] = HBE cells at air/liquid interface, 25 μL of 25 μM apical, mean ± SD
[5] = HBE cells, 25 μL of 25 μM apical, parent only

## N=C(NCCCCc1ccc(OC[C@H](N)C(N)=O)cc1)NC(=O)c1nc(Cl)c(N)nc1N [Comparative Example 1, (S)-3,5-diamino-6-chloro-N—(N-(4-(4-(2,3-diamino-3-oxopropoxy)phenyl)butyl)carbamimidoyl)pyrazine-2-carboxamide]
Sheep MCC; Ovis aries, using slope, AUC and Maximum Clearance, read-out: ED50 in the sheep MCC model
  ED50: ~0.24 µmol/kg
Sheep MCC; approximate ED50 dose as concentration of dosing solution
  ED50 in the sheep MCC model (solution concentration): ~3000 µM
Sheep MCC; sheep, 24 nmol/kg (300 μM)
  AUC (% CI × h): 6.9 ± 1.0 (3) % CI × h
  Initial Slope (4.0-4.5 h): 14.5 ± 1.3 (3)
Sheep MCC; sheep, 240 nmol/kg (3 mM)
  AUC (% CI × h): 14.1 ± 2.2 (6) % CI × h
  Initial Slope (4.0-4.5 h): 32.2 ± 7.3 (6)
Sheep MCC; [3]
  MCC Highest Submaximal Dose: 240 nmol/kg (3 mM)
Sheep MCC; sheep, top dose without plasma potassium elevation vs MCC highest submaximal dose
  Therapeutic Ratio (Benefit/Risk): 0.1
[1]; [4]
  % of Apical Mass as Metabolites (2 h): 83% and 83.0 ± 3.5%
  % on Basolateral Side as Metabolites (2 h): 94.7 ± 1.0%
[1]; [5]
  % of Initial Apical Mass on Basolateral Side as Parent (2 h): (1% Parent)
  % of Initial Drug Mass on Apical Side as Parent (2 h): (8% Parent)
[1]; HBE cells, apical surface, 37° C.
  fate on the apical side after 2 h incubation: eliminated from the apical side
[2]; sheep of the MCC study, at efficacious dose
  effect on plasma potassium: causes a rise in plasma potassium; also recorded: elevations of plasma K
[2]; [3]
  Top Dose in Sheep with no Elevation of Plasma Potassium: 24 nmol/kg (300 μM)

Source: patent US9593084B2 (Parion Sciences, Inc., priority 2012, dated 2017)
